Measurements as given in ChEMBL document CHEMBL1201862, “PubChem BioAssay data set” (2004).
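Results reflect a 48-hour exposure of cells in 96-well plates to compound at five concentrations. GI50 = concentration required for 50% inhibition of growth.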 Calls of active or inactive are those of the source. No stated cut-off is given here; in the data, active = GI50 up to about 1.1 µM and inactive = higher.

Legend:
Assay in all cases: DTP human tumour cell line panel, 48 h
HOP-92 = test system: HOP-92
TK-10 = test system: TK-10
SK-MEL-28 = test system: SK-MEL-28
SN12C = test system: SN12C
786-0 = test system: 786-0
SW-620 = test system: SW-620
KM12 = test system: KM12
Malme-3M = test system: Malme-3M
MCF7 = test system: MCF7
HCT-15 = test system: HCT-15
MDA-MB-435 = test system: MDA-MB-435
HCC 2998 = test system: HCC 2998
OVCAR-3 = test system: OVCAR-3
LOX IMVI = test system: LOX IMVI
COLO 205 = test system: COLO 205
OVCAR-8 = test system: OVCAR-8
NCI-H226 = test system: NCI-H226
HOP-62 = test system: HOP-62
SNB-75 = test system: SNB-75
SNB-19 = test system: SNB-19

Row | SMILES | GI50 (HOP-92) | GI50 (TK-10) | GI50 (SK-MEL-28) | GI50 (SN12C) | GI50 (786-0) | GI50 (SW-620) | GI50 (KM12) | GI50 (Malme-3M) | GI50 (MCF7) | GI50 (HCT-15) [µM] | GI50 (MDA-MB-435) | GI50 (HCC 2998) | GI50 (OVCAR-3) | GI50 (LOX IMVI) | GI50 (COLO 205) | GI50 (OVCAR-8) | GI50 (NCI-H226) | GI50 (HOP-62) | GI50 (SNB-75) | GI50 (SNB-19)
1 | O=c1c2cc(-c3ccccc3)sc2nc2n1N=C(c1ccccc1)CS2 | 12.1 µM (inactive) | 40.3 µM (inactive) | 23.6 µM (inactive) | 27 µM (inactive) | 13.8 µM (inactive) | 69.5 µM (inactive) | 31 µM (inactive) | 33.3 µM (inactive) | 14.6 µM (inactive) | 84.3 | 37.5 µM (inactive) | 36.5 µM (inactive) | 18.2 µM (inactive) | 27.3 µM (inactive) | 79.3 µM (inactive) | 32.1 µM (inactive) | 30.6 µM (inactive) | 5.02 µM (inactive) | 19.1 µM (inactive) | –
2 | CC1CN=C(Nc2ccc(F)c(Cl)c2)S1 (stereo unspecified) | 28.9 µM (inactive) | > 100 µM (inactive) | > 100 µM (inactive) | – | > 100 µM (inactive) | > 100 µM (inactive) | > 100 µM (inactive) | > 100 µM (inactive) | > 100 µM (inactive) | 83.4 | > 100 µM (inactive) | > 100 µM (inactive) | > 100 µM (inactive) | 86.7 µM (inactive) | > 100 µM (inactive) | > 100 µM (inactive) | > 100 µM (inactive) | > 100 µM (inactive) | > 100 µM (inactive) | > 100 µM (inactive)
3 | NC1CNC(=O)c2c(Cl)sc(Cl)c21 (stereo unspecified) | > 100 µM (inactive) | > 100 µM (inactive) | > 100 µM (inactive) | > 100 µM (inactive) | > 100 µM (inactive) | > 100 µM (inactive) | > 100 µM (inactive) | > 100 µM (inactive) | > 100 µM (inactive) | > 100 | > 100 µM (inactive) | > 100 µM (inactive) | > 100 µM (inactive) | > 100 µM (inactive) | > 100 µM (inactive) | > 100 µM (inactive) | > 100 µM (inactive) | > 100 µM (inactive) | > 100 µM (inactive) | > 100 µM (inactive)
4 | Cc1cc2nc3c(N)nn(CCN(C)C)c3nc2cc1C | 38.5 µM (inactive) | 41.4 µM (inactive) | 53.7 µM (inactive) | 36.7 µM (inactive) | 40.1 µM (inactive) | 38.7 µM (inactive) | 45.5 µM (inactive) | 34.2 µM (inactive) | 29.2 µM (inactive) | 36.4 | 37.9 µM (inactive) | 51.6 µM (inactive) | 55 µM (inactive) | 25.9 µM (inactive) | 28.1 µM (inactive) | 33.8 µM (inactive) | 11.2 µM (inactive) | 26.4 µM (inactive) | 27.4 µM (inactive) | 40.7 µM (inactive)
5 | O=S1(=O)OCCOS(=O)(=O)C1C1c2ccccc2-c2ccccc21 | > 100 µM (inactive) | > 100 µM (inactive) | 67.6 µM (inactive) | 48.6 µM (inactive) | 20 µM (inactive) | 26.9 µM (inactive) | 41.5 µM (inactive) | 56.2 µM (inactive) | 39 µM (inactive) | 35.4 | 33.6 µM (inactive) | 29 µM (inactive) | 47 µM (inactive) | 14.8 µM (inactive) | 70.5 µM (inactive) | 50.8 µM (inactive) | 26 µM (inactive) | 29.3 µM (inactive) | 2.41 µM (inactive) | 38.5 µM (inactive)
6 | O=C(c1ccco1)C1CC(c2ccc3ccccc3c2O)=NN1 (stereo unspecified) | > 100 µM (inactive) | > 100 µM (inactive) | > 100 µM (inactive) | > 100 µM (inactive) | 98.9 µM (inactive) | 84.1 µM (inactive) | > 100 µM (inactive) | > 100 µM (inactive) | 46.5 µM (inactive) | 50.6 | 56.6 µM (inactive) | > 100 µM (inactive) | 57.3 µM (inactive) | – | 66.1 µM (inactive) | 83.2 µM (inactive) | > 100 µM (inactive) | > 100 µM (inactive) | > 100 µM (inactive) | –
